Experimental data from ChEMBL document CHEMBL4422622, “Identification of Mineralocorticoid Receptor Modulators with Low Impact on Electrolyte Homeostasis but Maintained Organ Protection” (J Med Chem, 2019).
In brackets after ≈: the same amount, converted by molar mass.

What was measured:
[1] = Octanol-water partitioning co-efficient, log D of the compound at pH 7.4 by LC/MS/MS analysis; type: physicochemical
[2] = Kinetic solubility of compound at pH 7.4 after 24 hrs by shake-flask assay; type: physicochemical; conditions: buffer, read-out: -log(solubility) (converted)
Progesterone receptor = target: T1, Progesterone receptor (Homo sapiens, UniProt P06401); test: Binding affinity to recombinant human progesterone receptor LBD by fluormone PL red-fluorescence polarization assay
T1 sequence (P06401 whole entry): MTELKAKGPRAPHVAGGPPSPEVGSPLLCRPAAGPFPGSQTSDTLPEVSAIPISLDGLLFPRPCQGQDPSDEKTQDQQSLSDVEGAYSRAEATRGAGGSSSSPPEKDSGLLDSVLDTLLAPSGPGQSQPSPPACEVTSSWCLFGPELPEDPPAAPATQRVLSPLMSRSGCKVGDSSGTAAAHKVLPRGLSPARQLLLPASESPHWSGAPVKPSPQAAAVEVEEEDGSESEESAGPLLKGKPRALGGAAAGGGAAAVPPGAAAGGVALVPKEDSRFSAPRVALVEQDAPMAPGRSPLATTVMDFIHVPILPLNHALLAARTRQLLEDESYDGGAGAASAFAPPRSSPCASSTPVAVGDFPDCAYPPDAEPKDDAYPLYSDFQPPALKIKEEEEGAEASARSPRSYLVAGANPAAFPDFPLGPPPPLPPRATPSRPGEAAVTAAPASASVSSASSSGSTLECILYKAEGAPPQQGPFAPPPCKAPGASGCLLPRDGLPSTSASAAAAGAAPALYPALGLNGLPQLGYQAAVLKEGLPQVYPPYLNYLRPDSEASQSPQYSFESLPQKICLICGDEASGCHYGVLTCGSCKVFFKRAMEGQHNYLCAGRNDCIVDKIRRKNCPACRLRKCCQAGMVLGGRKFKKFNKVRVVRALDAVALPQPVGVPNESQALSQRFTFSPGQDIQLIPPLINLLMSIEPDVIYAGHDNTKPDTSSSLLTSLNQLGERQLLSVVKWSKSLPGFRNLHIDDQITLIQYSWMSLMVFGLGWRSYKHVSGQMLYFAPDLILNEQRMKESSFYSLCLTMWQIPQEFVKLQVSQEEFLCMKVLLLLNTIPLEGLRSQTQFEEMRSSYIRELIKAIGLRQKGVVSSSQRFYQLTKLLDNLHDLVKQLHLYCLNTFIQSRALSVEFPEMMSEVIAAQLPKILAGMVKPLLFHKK

[3] = Intrinsic clearance in human liver microsomes at 1 uM measured up to 30 mins in presence of NADPH by LC-MS/MS analysis; type: ADME, Microsome; conditions: read-out: CLH
Rattus norvegicus = test: Induction of hyperkalemia in Sprague-Dawley rat fed on low salt diet for 72 hrs assessed as increase in Na+/K+ ratio in urine administered via oral gavage after 8 hrs; type: organism-based; conditions: in vivo
[4] = Fraction unbound in Han Wistar rat plasma at 1 uM after 4 hrs by LC/MS/MS analysis; type: ADME, cell-free
[5] = Intrinsic clearance in Han Wistar rat hepatocytes assessed per million cells at 1 uM after 4 hrs by LC/MS/MS analysis; type: ADME, cell-based, Hepatocyte; conditions: read-out: CLH
[6] = Volume of distribution at steady state in Sprague-Dawley rat at 1 mg/kg, iv by LC-MS/MS analysis; type: ADME, organism-based; conditions: in vivo, read-out: Vdss
[7] = Clearance in Sprague-Dawley rat at 1 mg/kg, iv by LC-MS/MS analysis; type: ADME, organism-based; conditions: in vivo
[8] = Terminal half life in Sprague-Dawley rat at 1 mg/kg, iv by LC-MS/MS analysis; type: ADME, organism-based; conditions: in vivo, read-out: beta t1/2 (converted)
[9] = Oral bioavailability in Sprague-Dawley rat at 3 mg/kg by LC-MS/MS analysis; type: ADME, organism-based; conditions: in vivo
Glucocorticoid receptor = target: T2, Glucocorticoid receptor (Homo sapiens, UniProt P04150)
T2 sequence (P04150 whole entry): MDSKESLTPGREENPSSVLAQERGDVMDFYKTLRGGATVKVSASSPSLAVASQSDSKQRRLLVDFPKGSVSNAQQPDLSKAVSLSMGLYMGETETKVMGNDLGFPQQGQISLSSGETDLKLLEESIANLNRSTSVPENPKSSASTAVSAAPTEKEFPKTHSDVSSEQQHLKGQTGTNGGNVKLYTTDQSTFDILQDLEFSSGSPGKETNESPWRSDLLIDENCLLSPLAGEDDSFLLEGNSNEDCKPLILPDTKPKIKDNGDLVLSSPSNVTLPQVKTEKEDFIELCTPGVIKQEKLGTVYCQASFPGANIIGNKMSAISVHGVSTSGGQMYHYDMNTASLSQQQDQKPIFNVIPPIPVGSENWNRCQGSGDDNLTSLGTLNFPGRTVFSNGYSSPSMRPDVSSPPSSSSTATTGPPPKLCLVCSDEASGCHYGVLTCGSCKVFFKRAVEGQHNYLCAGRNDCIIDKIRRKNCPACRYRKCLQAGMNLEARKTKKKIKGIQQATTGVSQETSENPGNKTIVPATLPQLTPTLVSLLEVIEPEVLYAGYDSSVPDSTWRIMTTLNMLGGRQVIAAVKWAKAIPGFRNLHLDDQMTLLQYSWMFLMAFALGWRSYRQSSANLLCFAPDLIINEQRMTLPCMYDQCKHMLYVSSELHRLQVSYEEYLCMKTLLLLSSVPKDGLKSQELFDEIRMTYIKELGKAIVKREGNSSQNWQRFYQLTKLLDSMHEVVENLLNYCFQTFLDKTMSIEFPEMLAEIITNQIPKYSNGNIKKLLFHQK
Description: Binding affinity to recombinant human GR LBD by fluormone GS red-fluorescence polarization assay

[10] = Apparent permeability in human Caco2 cells at 10 uM after 45 to 120 mins by LC/MS/MS analysis; type: ADME, cell-based; conditions: Caco-2
[11] = Intrinsic clearance in human hepatocytes assessed per million cells at 1 uM measured up to 120 mins in presence of NADPH by LC-MS/MS analysis; type: ADME, cell-based, Hepatocyte; conditions: read-out: CLH
[12] = Volume of distribution at steady state in Han Wistar rat at 1 to 1.2 mg/kg, iv by LC-MS/MS analysis; type: ADME, organism-based; conditions: in vivo, read-out: Vdss
[13] = Clearance in Han Wistar rat at 1 to 1.2 mg/kg, iv by LC-MS/MS analysis; type: ADME, organism-based; conditions: in vivo
[14] = Terminal half life in Han Wistar rat at 1 to 1.2 mg/kg, iv by LC-MS/MS analysis; type: ADME, organism-based; conditions: in vivo, read-out: beta t1/2 (converted)
[15] = Oral bioavailability in Han Wistar rat at 2.7 mg/kg by LC-MS/MS analysis; type: ADME, organism-based; conditions: in vivo
[16] = target: T3, Mineralocorticoid receptor (Rattus norvegicus, UniProt P22199); conditions: u2os
T3 sequence (P22199 whole entry): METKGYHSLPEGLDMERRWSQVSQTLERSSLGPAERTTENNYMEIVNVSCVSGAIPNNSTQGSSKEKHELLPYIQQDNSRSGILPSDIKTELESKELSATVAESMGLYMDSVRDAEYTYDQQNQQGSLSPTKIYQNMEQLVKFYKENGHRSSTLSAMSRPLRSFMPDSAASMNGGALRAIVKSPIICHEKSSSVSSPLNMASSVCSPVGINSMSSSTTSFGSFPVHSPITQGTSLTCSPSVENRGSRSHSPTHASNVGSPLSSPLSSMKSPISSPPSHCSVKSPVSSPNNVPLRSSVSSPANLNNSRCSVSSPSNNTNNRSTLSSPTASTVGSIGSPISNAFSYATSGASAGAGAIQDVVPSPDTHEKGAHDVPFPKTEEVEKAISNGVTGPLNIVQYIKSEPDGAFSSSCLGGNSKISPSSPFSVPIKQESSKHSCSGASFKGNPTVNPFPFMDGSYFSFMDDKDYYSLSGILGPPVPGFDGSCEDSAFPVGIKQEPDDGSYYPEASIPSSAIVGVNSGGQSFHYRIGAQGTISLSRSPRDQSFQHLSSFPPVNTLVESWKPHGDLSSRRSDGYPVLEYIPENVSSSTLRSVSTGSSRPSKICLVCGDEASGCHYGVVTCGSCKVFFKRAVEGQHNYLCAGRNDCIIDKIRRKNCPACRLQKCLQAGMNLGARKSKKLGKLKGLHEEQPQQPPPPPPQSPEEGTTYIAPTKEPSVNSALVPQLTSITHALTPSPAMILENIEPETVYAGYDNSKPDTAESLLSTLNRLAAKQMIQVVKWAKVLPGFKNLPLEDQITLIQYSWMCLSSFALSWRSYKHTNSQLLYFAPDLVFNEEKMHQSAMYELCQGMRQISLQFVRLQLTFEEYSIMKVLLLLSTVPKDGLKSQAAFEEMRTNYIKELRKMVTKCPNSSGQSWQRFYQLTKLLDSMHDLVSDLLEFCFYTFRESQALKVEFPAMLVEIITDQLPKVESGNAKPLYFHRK
Description: Antagonist activity at gal4-fused rat mineralocorticoid receptor LBD in expressed in human U2OS cells by luciferase reporter gene assay

| SMILES | logD [1] | solubility kinetic at 24 h [2] [µM] | Ki (Progesterone receptor) [µM] | microsomal CLint at 1 µM [3] [µL/min/mg] | Activity (Rattus norvegicus) | fraction unbound at 4 h, 1 µM [4] | hepatocyte CLint at 1 µM [5] [µL/min/1e6 cells] | Vd [6] [L/kg] | clearance [7] [mL/min/kg] | half-life [8] [h] | bioavailability [9] [%] | Ki (Glucocorticoid receptor) [µM] | Papp at 10 µM [10] [×10⁻⁶ cm/s] | hepatocyte CLint at 1 µM [11] [µL/min/1e6 cells] | Vd [12] [L/kg] | clearance [13] [mL/min/kg] | half-life [14] [h] | bioavailability [15] [%] | pIC50 [16] |
| --- | --- | --- | --- | --- | --- | --- | --- | --- | --- | --- | --- | --- | --- | --- | --- | --- | --- | --- | --- |
| C[C@H]1COc2cc(F)ccc2N1C(=O)c1ccc2c(c1)NC(=O)CO2 | 2.6 | 25.1 (≈ 8.6 µg/mL) | 25.1 | 8 | Toxic | 0.091 | 14 | 1.7 | 8 | 2.4 | 76 | 1.26 |  |  |  |  |  |  |  |
| CNC(=O)C[C@H]1COc2cc(F)ccc2N1C(=O)c1ccc2c(c1)NC(=O)CO2 [BALCINRENONE] | 1.4 |  |  |  | Non-Toxic | 0.61 | 5 |  |  |  |  |  | 5 | < 1 | 0.7 | 24 | 0.48 | 32 | 7.1 |
